Measured values reported in ChEMBL document CHEMBL1201862, “PubChem BioAssay data set” (2004).
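Five compound concentrations were applied to cells in 96-well plates for 48 hours; endpoints were derived by simple linear interpolation of the resulting dose-response curve. The concentration for 50% growth inhibition is given as GI50.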 The source made the active and inactive calls. Cut-off read from the data, not from the text of the source: active = GI50 up to about 1.1 µM and inactive = higher.

Assays:
Assay in all cases: growth of human tumour cells (NCI), 48 h
Hs-578T = system: Hs-578T
CAKI-1 = system: CAKI-1
SF-268 = system: SF-268
SK-OV-3 = system: SK-OV-3
RXF 393 = system: RXF 393
HL-60 = system: HL-60
ACHN = system: ACHN
SK-MEL-28 = system: SK-MEL-28
T47D = system: T47D
MDA-N = system: MDA-N
KM12 = system: KM12
K562 = system: K562
UO-31 = system: UO-31
NCI-H522 = system: NCI-H522
NCI-H23 = system: NCI-H23
DU-145 = system: DU-145
A549 = system: A549
MCF7 = system: MCF7
UACC-62 = system: UACC-62
U-251 = system: U-251
OVCAR-5 = system: OVCAR-5
Malme-3M = system: Malme-3M
HCC 2998 = system: HCC 2998
NCI/ADR-RES = system: NCI/ADR-RES
HOP-62 = system: HOP-62
HT-29 = system: HT-29
IGROV-1 = system: IGROV-1
SK-MEL-2 = system: SK-MEL-2
SNB-19 = system: SNB-19
HCT-15 = system: HCT-15
EKVX = system: EKVX
PC-3 = system: PC-3
CCRF-CEM = system: CCRF-CEM
OVCAR-8 = system: OVCAR-8
NCI-H226 = system: NCI-H226
SN12C = system: SN12C
SNB-75 = system: SNB-75
HOP-92 = system: HOP-92
M14 = system: M14
LOX IMVI = system: LOX IMVI
SF-295 = system: SF-295
TK-10 = system: TK-10
OVCAR-4 = system: OVCAR-4
COLO 205 = system: COLO 205
HCT-116 = system: HCT-116
NCI-H460 = system: NCI-H460
MDA-MB-231 = system: MDA-MB-231
A498 = system: A498
786-0 = system: 786-0
OVCAR-3 = system: OVCAR-3
MDA-MB-435 = system: MDA-MB-435
SW-620 = system: SW-620
BT-549 = system: BT-549
SK-MEL-5 = system: SK-MEL-5
UACC-257 = system: UACC-257
MOLT-4 = system: MOLT-4
RPMI-8226 = system: RPMI-8226

With `C=CCn1c(-c2ccc([N+](=O)[O-])cc2)csc1=N` the GI50 (Hs-578T) was > 100 µM (inactive), the GI50 (CAKI-1) was 69.5 µM (inactive) and the GI50 (SF-268) was 74.5 µM (inactive). The GI50 (SK-OV-3) was 54.7 µM (inactive), the GI50 (RXF 393) was 7.43 µM (inactive) and the GI50 (HL-60) was 18.9 µM (inactive). The GI50 (ACHN) was 83.2 µM (inactive), the GI50 (SK-MEL-28) was > 100 µM (inactive) and the GI50 (T47D) was 26.2 µM (inactive). For the same compound, the GI50 (MDA-N) was 29.1 µM (inactive), the GI50 (KM12) was 36.6 µM (inactive) and the GI50 (K562) was 9.59 µM (inactive). For the same compound, the GI50 (UO-31) was 37.2 µM (inactive), the GI50 (NCI-H522) was 36.6 µM (inactive) and the GI50 (NCI-H23) was 30 µM (inactive). The GI50 (DU-145) was 43.8 µM (inactive), the GI50 (A549) was 35.5 µM (inactive) and the GI50 (MCF7) was 25.4 µM (inactive). The GI50 (UACC-62) was 37.7 µM (inactive), the GI50 (U-251) was 54.1 µM (inactive) and the GI50 (OVCAR-5) was > 100 µM (inactive). For the same compound, the GI50 (Malme-3M) was 76.9 µM (inactive), the GI50 (HCC 2998) was > 100 µM (inactive) and the GI50 (NCI/ADR-RES) was 44.3 µM (inactive). For the same compound, the GI50 (HOP-62) was 78.2 µM (inactive), the GI50 (HT-29) was 32 µM (inactive) and the GI50 (IGROV-1) was 59 µM (inactive). The GI50 (SK-MEL-2) was 91.2 µM (inactive), the GI50 (SNB-19) was > 100 µM (inactive) and the GI50 (HCT-15) was 64.7 µM. For the same compound, the GI50 (EKVX) was 16.4 µM (inactive), the GI50 (PC-3) was 48.1 µM (inactive) and the GI50 (CCRF-CEM) was 11.1 µM (inactive). For the same compound, the GI50 (OVCAR-8) was 69.2 µM (inactive), the GI50 (NCI-H226) was 41.6 µM (inactive) and the GI50 (SN12C) was > 100 µM (inactive). For the same compound, the GI50 (SNB-75) was 19.5 µM (inactive), the GI50 (HOP-92) was 47.5 µM (inactive) and the GI50 (M14) was 56.9 µM (inactive). The GI50 (LOX IMVI) was 20.3 µM (inactive), the GI50 (SF-295) was 18.4 µM (inactive) and the GI50 (TK-10) was 66.7 µM (inactive). For the same compound, the GI50 (OVCAR-4) was 42.8 µM (inactive), the GI50 (COLO 205) was > 100 µM (inactive) and the GI50 (HCT-116) was 37.3 µM (inactive). The GI50 (NCI-H460) was 61.1 µM (inactive), the GI50 (MDA-MB-231) was 16.8 µM (inactive) and the GI50 (A498) was > 100 µM (inactive). For the same compound, the GI50 (786-0) was 74.6 µM (inactive), the GI50 (OVCAR-3) was 41.4 µM (inactive) and the GI50 (MDA-MB-435) was 43.5 µM (inactive). For the same compound, the GI50 (SW-620) was 70 µM (inactive), the GI50 (BT-549) was 92.5 µM (inactive) and the GI50 (SK-MEL-5) was 14.8 µM (inactive). The GI50 (UACC-257) was 13.1 µM (inactive).
In the case of `CN1CCCCC1CCN1CCCCC1` (centres undefined), the GI50 (Hs-578T) is reported as > 100 µM (inactive), the GI50 (CAKI-1) is reported as > 100 µM (inactive) and the GI50 (SF-268) is reported as > 100 µM (inactive). For the same compound, the GI50 (SK-OV-3) was > 100 µM (inactive), the GI50 (RXF 393) was > 100 µM (inactive) and the GI50 (HL-60) was 83 µM (inactive). For the same compound, the GI50 (ACHN) was > 100 µM (inactive), the GI50 (SK-MEL-28) was > 100 µM (inactive) and the GI50 (T47D) was > 100 µM (inactive). For the same compound, the GI50 (MDA-N) was > 100 µM (inactive), the GI50 (KM12) was > 100 µM (inactive) and the GI50 (K562) was > 100 µM (inactive). For the same compound, the GI50 (UO-31) was > 100 µM (inactive), the GI50 (NCI-H522) was > 100 µM (inactive) and the GI50 (NCI-H23) was > 100 µM (inactive). The GI50 (DU-145) was > 100 µM (inactive), the GI50 (A549) was > 100 µM (inactive) and the GI50 (MCF7) was > 100 µM (inactive). For the same compound, the GI50 (UACC-62) was > 100 µM (inactive), the GI50 (U-251) was > 100 µM (inactive) and the GI50 (OVCAR-5) was > 100 µM (inactive). The GI50 (MOLT-4) was > 100 µM (inactive), the GI50 (Malme-3M) was > 100 µM (inactive) and the GI50 (HCC 2998) was > 100 µM (inactive). The GI50 (NCI/ADR-RES) was > 100 µM (inactive), the GI50 (HOP-62) was > 100 µM (inactive) and the GI50 (HT-29) was > 100 µM (inactive). The GI50 (IGROV-1) was > 100 µM (inactive), the GI50 (SK-MEL-2) was > 100 µM (inactive) and the GI50 (SNB-19) was > 100 µM (inactive). The GI50 (HCT-15) was greater than 100 µM, the GI50 (EKVX) was > 100 µM (inactive) and the GI50 (PC-3) was > 100 µM (inactive). The GI50 (OVCAR-8) was > 100 µM (inactive), the GI50 (NCI-H226) was > 100 µM (inactive) and the GI50 (SN12C) was > 100 µM (inactive). For the same compound, the GI50 (SNB-75) was > 100 µM (inactive), the GI50 (HOP-92) was > 100 µM (inactive) and the GI50 (M14) was > 100 µM (inactive). For the same compound, the GI50 (LOX IMVI) was > 100 µM (inactive), the GI50 (SF-295) was > 100 µM (inactive) and the GI50 (TK-10) was > 100 µM (inactive). For the same compound, the GI50 (OVCAR-4) was > 100 µM (inactive), the GI50 (RPMI-8226) was > 100 µM (inactive) and the GI50 (COLO 205) was 56.4 µM (inactive). The GI50 (HCT-116) was > 100 µM (inactive), the GI50 (NCI-H460) was > 100 µM (inactive) and the GI50 (MDA-MB-231) was > 100 µM (inactive). The GI50 (A498) was > 100 µM (inactive), the GI50 (786-0) was > 100 µM (inactive) and the GI50 (OVCAR-3) was > 100 µM (inactive). For the same compound, the GI50 (MDA-MB-435) was > 100 µM (inactive), the GI50 (SW-620) was > 100 µM (inactive) and the GI50 (BT-549) was > 100 µM (inactive). For the same compound, the GI50 (SK-MEL-5) was > 100 µM (inactive) and the GI50 (UACC-257) was > 100 µM (inactive).
For `Clc1ccccc1C(c1ccccc1)(c1ccccc1)n1ccnc1` [CLOTRIMAZOLE], the GI50 (Hs-578T) was 15.1 µM (inactive), the GI50 (CAKI-1) was 17.4 µM (inactive) and the GI50 (SF-268) was 16.5 µM (inactive). For the same compound, the GI50 (SK-OV-3) was 14.5 µM (inactive), the GI50 (RXF 393) was 17.4 µM (inactive) and the GI50 (ACHN) was 10 µM (inactive). The GI50 (SK-MEL-28) was 16.2 µM (inactive), the GI50 (T47D) was 7.85 µM (inactive) and the GI50 (MDA-N) was 11.9 µM (inactive). The GI50 (KM12) was 11.7 µM (inactive), the GI50 (K562) was 5.97 µM (inactive) and the GI50 (UO-31) was 6.56 µM (inactive). The GI50 (NCI-H522) was 6.38 µM (inactive), the GI50 (NCI-H23) was 13 µM (inactive) and the GI50 (DU-145) was 17.3 µM (inactive). The GI50 (A549) was 8.2 µM (inactive), the GI50 (MCF7) was 7.33 µM (inactive) and the GI50 (UACC-62) was 13.3 µM (inactive). For the same compound, the GI50 (U-251) was 14.8 µM (inactive), the GI50 (OVCAR-5) was 11.8 µM (inactive) and the GI50 (MOLT-4) was 8.95 µM (inactive). For the same compound, the GI50 (Malme-3M) was 4.8 µM (inactive), the GI50 (HCC 2998) was 16.5 µM (inactive) and the GI50 (NCI/ADR-RES) was 9.25 µM (inactive). The GI50 (HOP-62) was 11.4 µM (inactive), the GI50 (HT-29) was 9.25 µM (inactive) and the GI50 (IGROV-1) was 7.57 µM (inactive). The GI50 (SK-MEL-2) was 12.1 µM (inactive), the GI50 (SNB-19) was 14.4 µM (inactive) and the GI50 (HCT-15) was 8.67 µM. The GI50 (EKVX) was 7.93 µM (inactive), the GI50 (PC-3) was 7.03 µM (inactive) and the GI50 (CCRF-CEM) was 5.93 µM (inactive). For the same compound, the GI50 (OVCAR-8) was 11 µM (inactive), the GI50 (SNB-75) was 16.5 µM (inactive) and the GI50 (HOP-92) was 11.8 µM (inactive). The GI50 (M14) was 13.5 µM (inactive), the GI50 (SF-295) was 9.95 µM (inactive) and the GI50 (TK-10) was 15.3 µM (inactive). The GI50 (OVCAR-4) was 9.82 µM (inactive), the GI50 (RPMI-8226) was 6.32 µM (inactive) and the GI50 (COLO 205) was 8.99 µM (inactive). The GI50 (HCT-116) was 7.82 µM (inactive), the GI50 (NCI-H460) was 10.7 µM (inactive) and the GI50 (MDA-MB-231) was 14.9 µM (inactive). For the same compound, the GI50 (A498) was 20.6 µM (inactive), the GI50 (786-0) was 14.9 µM (inactive) and the GI50 (OVCAR-3) was 5.66 µM (inactive). For the same compound, the GI50 (MDA-MB-435) was 12.5 µM (inactive), the GI50 (SW-620) was 12 µM (inactive) and the GI50 (BT-549) was 8.05 µM (inactive). For the same compound, the GI50 (SK-MEL-5) was 7.78 µM (inactive) and the GI50 (UACC-257) was 10.8 µM (inactive).
